Entries after “also recorded” stand apart in the source; their conditions may differ.
Tested on: patients with depression of Alzheimer's disease
Experiment: Study MEM-MD-17: memantine in depression of Alzheimer's disease, suicide items of CSDD, MADRS, HAMD
Assay type: in vivo, human
Set-up: key to Change from Baseline in CSDD item #16 (suicide item): change in item score; 0=absent, 1=mild to intermittent, 2=severe; Change from Baseline in MADRS item #10 (suicide item) / Change from Baseline in HAMD item #3 (suicide item): scale not given here
Experimental: The objective of this study (MEM-MD-17) was to evaluate the safety and efficacy of memantine and memantine in combination with escitalopram in patients with depression of Alzheimer's disease.
The clinical study was conducted in two phases —12-weeks of open-label treatment with memantine (MEM) followed by 12-weeks of randomized double-blind treatment with memantine+placebo (MEM+PBO) or memantine+escitalopram (MEM+SCT).
Study design. Patients were started on memantine 5 mg/day which was increased to 10 mg/day at end of Week 1. The dose could be further increased to a maximum of 20 mg/day in patients with inadequate response in weekly increments of 5 mg. At end of Week 12, patients were randomized to one of the two treatment groups: MEM+PBO or MEM+SCT. The dose of memantine during the double-blind treatment period was fixed at the same level as at the end of Week 12 and the dose of escitalopram was fixed at 10 mg. Dose adjustments during the double-blind period were not permitted.
Patient Population. A total of 15 patients were enrolled in 2 sites. Three of the 15 patients discontinued during the open-label phase. The remaining 12 were randomized to double-blind treatment, 5 in the MEM+PBO treatment group, and 7 in the MEM+SCT treatment group. A total of 10 patients completed the study.
Endpoints. Several rating scales were used to assess efficacy for depression. The Cornell Scale for Depression in Dementia (CSDD); the HAMD; and the MADRS. The HAMD and MADRS have been described above.
CSDD. This is a […] scale which is subdivided into five sections: (A) Mood-Related Signs (questions 1-4); (B) Behavioral Disturbances (questions 5-8); (C) Physical Signs (questions 9-11); (D) Cyclic Functions (questions 12-15); and (E) Ideational Disturbances (questions 16-19). Question 16 is explicitly directed to suicidal ideation. The scoring system ranges from a=unable to evaluate; 0=absent; 1=mild to intermittent; and 2=severe.
Statistics. The efficacy analyses were based on the ITT population using both last observation carried forward (LOCF) and observed cases (OC) approaches. For each of the parameters, descriptive statistics were presented for the actual values and change from baseline by visit. For categorical variables, frequency distributions were presented.

SMILES: CC12CC3CC(C)(C1)CC(N)(C3)C2.Cl [Memantine, 1-amino-3,5-dimethyladamantane hydrochloride]
- Change from Baseline in CSDD item #16 (suicide item) (Week 12, ITT Population, N = 5 who received memantine throughout, baseline 0.4): −0.4
- Change from Baseline in HAMD item #3 (suicide item) (Week 12, ITT Population, N = 5 who received memantine throughout, baseline 0.8): −0.8
- Change from Baseline in MADRS item #10 (suicide item) (Week 12, ITT Population, N = 5 who received memantine throughout, baseline 1.0): −1.0
- Change from Baseline in CSDD item #16 (suicide item) (Week 12, LOCF, ITT Population, N = 15, baseline 0.4): −0.3
- Change from Baseline in HAMD item #3 (suicide item) (Week 12, LOCF, ITT Population, N = 15, baseline 0.5): −0.5
- Change from Baseline in MADRS item #10 (suicide item) (Week 12, LOCF, ITT Population, N = 15, baseline 0.9): −0.6
- Change from Baseline in CSDD item #16 (suicide item) (Week 24, ITT Population, N = 5 who received memantine throughout, baseline 0.4): −0.3
- Change from Baseline in HAMD item #3 (suicide item) (Week 24, ITT Population, N = 5 who received memantine throughout, baseline 0.8): −0.5
- Change from Baseline in MADRS item #10 (suicide item) (Week 24, ITT Population, N = 5 who received memantine throughout, baseline 1.0): −0.5
- suicidality as measured by 3 different depression rating instruments (change from Baseline at Weeks 12 and 24, hydrochloride): modest but consistent numerical improvement in suicidality; also recorded: trend towards reduced suicidal thoughts and ideation

Source: US20050282911A1, “Memantine for the prevention or reduction of suicidality and for treatment of major depression associated with suicidality” (priority 2003, published 2005)
